Test results: patent publication US20230226087A1, “PHOSPHOLIPIDS AND PHOSPHOLIPID METABOLITES FOR TREATING VIRAL AND BACTERIAL PNEUMONIA AND SEPSIS” (ANDREAS HETTICH GMBH & CO. KG, priority 2020, published 2023)
Read-outs that look alike come from different tables or passages of the source.

What was measured:
plasma LysoPC level [1] = test: Change of plasma LysoPC level after oral ingestion in a fasted healthy subject (HPTLC assay of LysoPC); settings: 600 mg alpha-GPC
Experimental: (§1) LysoPC from plasma, serum or blood was extracted in one step by a newly developed method and subsequently assayed by using HPTLC (high performance thin layer chromatography).
(§2) The extraction of 50 μl of sample each was effected using salt-assisted extraction. For this purpose, a ceramic sphere (3.4 mm, ceramic) was charged in a 2 ml twist-top vial, and then 50 μl of distilled water, 50 μl of sample, 192 μl of concentrated ammonium acetate solution, and 300 μl of acetonitrile/1-pentanol (2.5:1 v/v) were added. After closing, the vial is intensively shaken centrifugally using dual centrifugation (ZentriMix 380 R, from the company Hettich, Tuttlingen, Germany) at 2000 rpm and 20° C. for 4 min. Subsequently, the vials are centrifuged at 16,000 rpm for 10 min. From the upper phase, 200 μl is removed, transferred to a crimp-top vial with a microinsert, crimped, and sent to HPTLC.
(§3) For the determination of the LysoPC concentrations using HPTLC, five LysoPC standards (16, 40, 80, 120 and 160 μM LysoPC in acetonitrile/1-pentanol (2.5:1 v/v.) and up to 12 sample extracts were applied to a 20×10 cm silica gel plate using the automated applying device ATS4 (CAMAG, Switzerland). The volume applied is 6 μl each.
(§4) After the application and after a dwell time of five minutes to ensure uniform evaporation of the solvent, the plate is placed into a preconditioned DC chamber filled with 35 ml of chloroform/methanol/water (65:35:4 v/v) and 200 μl of 25% ammonia solution for 20 min. Within this period, a travelling distance of about 9 cm is reached. […] After cooling to room temperature again, the optical density of the LysoPC bands (Rf about 0.1) is determined using the evaluation unit (TLC Visualizer 2, CAMAG, Switzerland), and the LysoPC concentrations were evaluated by comparing with the calibration substances using the HPTLC software “visionCATS” (Camag, Switzerland). If the LysoPC value is determined, not directly from plasma, but from whole blood, then the value needs to be corrected by the respective hematocrit value and by a factor of 1.3. […]

plasma LysoPC level [2] = settings: human, in vivo
Experimental: as §1, §2, §3, §4

albumin = albumin (Homo sapiens, UniProt P02768); settings: cited from earlier work
[3] = tested on: septic shock (Gram positive and Gram negative); settings: rat, cited from earlier work
E. coli = settings: mice, cited from earlier work
sepsis models = settings: mice, 25 mg/kg LysoPC i.p., cited from earlier work
[4] = mice; cited from earlier work
[5] = Assaying the total amount of LysoPC in the body (distribution between plasma and deeper compartments); format: in vivo, human
Experimental: To the therapeutic approach for the treatment of pneumonias of different origins and of sepsis as described herein, the determination of the total amount of LysoPC in the body is essential. The latter could be determined by determining the LysoPC concentration in the plasma, which is in equilibrium with the deeper compartments. To this end, one subject was administered, on the one hand, a high amount of phospholipid from egg (Example 1 (Determination of Plasma LysoPC) and Example 2). The plasma volume was calculated, the increase of the LysoPC concentration was determined, and the plasma LysoPC level accompanying this concentration change was calculated. This LysoPC amount and its ratio to the amount taken up yields the distribution of the LysoPC equivalent taken up between the plasma and the deeper compartments, from which the total LysoPC amount in the body can be calculated. It was considered that 100% of the phospholipid is taken up as LysoPC.
In another experiment, a subject was administered a high amount (25 g) of pure triglyceride (Example 3). The plasma volume was calculated. The lowering of the LysoPC concentration because of the consumption of LysoPC for producing PC for the biosynthesis of chylomicrons was determined (One chylomicron contains about 5-10% PC as a ratio to the amount of triglyceride). The amount of plasma LysoPC involved in this concentration change was calculated. This amount of LysoPC and its ratio to the amount taken up yields the distribution of the LysoPC equivalent taken up between the plasma and the deeper compartments, from which the total LysoPC amount in the body can be calculated. It was considered that 100% of the plasma LysoPC was converted to PC.
From the results of Examples 2 and 3, the amount of LysoPC in deeper compartments could be estimated at about 95% of the total body LysoPCs, i.e., about 5% is present in the blood plasma.
On this basis, the amount of total body LysoPCs can be estimated to a minimum of 10 g. […]

[6] = tested on: production of antigen-specific antibodies; settings: mice, administered simultaneously with various antigens; cited from earlier work
[7] = squirrel monkeys; cited from earlier work

Sequence of albumin (P02768 25-609): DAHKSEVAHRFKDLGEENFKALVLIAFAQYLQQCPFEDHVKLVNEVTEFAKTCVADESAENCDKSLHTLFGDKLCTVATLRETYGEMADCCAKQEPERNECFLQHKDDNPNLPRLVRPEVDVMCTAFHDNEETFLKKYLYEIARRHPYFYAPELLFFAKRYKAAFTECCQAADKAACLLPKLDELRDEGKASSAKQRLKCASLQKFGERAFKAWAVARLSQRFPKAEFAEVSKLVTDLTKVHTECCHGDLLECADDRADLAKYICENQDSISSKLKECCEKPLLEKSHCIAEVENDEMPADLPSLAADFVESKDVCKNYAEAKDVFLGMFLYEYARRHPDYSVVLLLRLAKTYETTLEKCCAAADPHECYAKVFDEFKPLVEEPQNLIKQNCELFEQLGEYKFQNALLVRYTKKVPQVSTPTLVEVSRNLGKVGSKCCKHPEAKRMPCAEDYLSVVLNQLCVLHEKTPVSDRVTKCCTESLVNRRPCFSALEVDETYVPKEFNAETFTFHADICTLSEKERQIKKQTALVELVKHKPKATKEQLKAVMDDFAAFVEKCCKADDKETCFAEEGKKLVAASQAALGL

Substance: alpha-glycerophosphocholine [alpha-GPC]
- increase of plasma LysoPC level (plasma LysoPC level [1]; rise within 30 min after the first hour, then constant until end (2 hours)): about 20%
- change of plasma LysoPC level in the first hour (plasma LysoPC level [1]; starting level about 190 μM): did not change

Substance: triglycerides
- share of the consumed LysoPC amount (1700 mg) taken from the plasma (plasma LysoPC level [2]): 3.9%

Substance: lyso-phosphatidylcholine [LysoPC]
- number of binding sites of albumin for LysoPC (albumin): 3-4
- share of plasma LysoPCs bound by albumin (albumin; plasma): about 80%
- IL1-β levels ([3]; accompanying the protecting effects): reduction of the IL1-β levels
- effect of higher doses ([3]; higher doses of up to 100 mg/kg): incapable or even harmful
- effect on damage to the organs and dysfunctions ([3]; up to 10 mg/kg, i.v.): reduce the damage to the organs and dysfunctions significantly
- survival (E. coli; E. coli sepsis, 20 mg/kg LysoPC s.c., from about 20%): 90%
- duration of increased LysoPC level after a single injection (E. coli; single injection): about 4 hours
- bacterial clearance (sepsis models): improved
- survival, first sepsis model (sepsis models; from 0%): 69%
- survival, second sepsis model (sepsis models; from 0%): 40%
- LysoPC half life [4]: about 4 hours
- amount of total body LysoPCs ([5]; for mean 300 μM and plasma volume about 3.5 liters (about 500 mg in plasma)): about 10 g
- proportion of total body LysoPC located in the blood plasma ([5]; from Examples 2 and 3): 4-5%
- daily conversion rate of LysoPC ([5]; healthy subjects, based on estimated total body half life of 2.5 hours): about 50 g
- effect in the production of antigen-specific antibodies (adjuvant) [6]: identical to that of alum
- LysoPC half life [7]: 1.3 h
